Experimental data taken from patent US7723320B2, “Use of estrogen compounds to increase libido in women” (Pantarhei Bioscience B.V., priority 2001, dated 2010).
Read-outs that look alike come from different tables or passages of the source.

Key:
[1] = biological target: T1, human sex Hormone Binding Globulin (SHBG) (Homo sapiens, UniProt P04278); assay: Competitive steroid-binding assay, SHBG; conditions: [3H]DHT or [3H]estradiol as labeled ligands
T1 construct: made in house; host or cells: transgenic mouse (purified from serum)
T1 sequence (P04278 30-402): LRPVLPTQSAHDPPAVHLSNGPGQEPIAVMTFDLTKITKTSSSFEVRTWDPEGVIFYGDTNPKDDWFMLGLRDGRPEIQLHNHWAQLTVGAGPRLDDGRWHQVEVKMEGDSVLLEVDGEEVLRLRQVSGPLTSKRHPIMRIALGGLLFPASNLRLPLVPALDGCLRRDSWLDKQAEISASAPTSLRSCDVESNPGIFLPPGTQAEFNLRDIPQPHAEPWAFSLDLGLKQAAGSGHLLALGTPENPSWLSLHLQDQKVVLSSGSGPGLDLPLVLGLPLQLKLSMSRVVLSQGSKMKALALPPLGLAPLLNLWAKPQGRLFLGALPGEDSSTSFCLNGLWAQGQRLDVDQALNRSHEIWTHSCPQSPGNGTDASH
Procedure: Human SHBG was treated for 30 min at room temperature with a dextran-coated charcoal (DCC) suspension in phosphate buffered saline (PBS) to remove any steroid ligand. After centrifugation (2,000×g for 10 min) to sediment the DCC, the supernatant containing the human SHBG was diluted in PBS to a concentration of 1 nM based on its steroid binding capacity.
The average amounts of [^3H]labeled ligands bound to SHBG at each concentration of competitor (B) were expressed as a percentage of the average amounts of [^3H]labeled ligands bound to SHBG in the absence of competitor (B0), and were plotted against the concentration of competitor in each assay tube.

[2] = tested on: human breast cancer cells (MCF-7); conditions: MCF-7, long term tissue culture; cited from earlier work
immature rat uterus = conditions: subcutaneously administered, Holinka et al., cited from earlier work
uterus = conditions: continuous administration from a subcutaneous depot; cited from earlier work
[3] = tested on: estrogen receptors in the human endometrium; conditions: Tseng et al., 1978; cited from earlier work
[4] = biological target: T2, rat uterine nuclear estrogen receptor (Rattus norvegicus, UniProt P06211); conditions: cited from earlier work
T2 construct: rat uterine cytosol estrogen receptor; host or cells: rat uterus (cytosol / nuclear fraction)
T2 sequence (P06211 1-600): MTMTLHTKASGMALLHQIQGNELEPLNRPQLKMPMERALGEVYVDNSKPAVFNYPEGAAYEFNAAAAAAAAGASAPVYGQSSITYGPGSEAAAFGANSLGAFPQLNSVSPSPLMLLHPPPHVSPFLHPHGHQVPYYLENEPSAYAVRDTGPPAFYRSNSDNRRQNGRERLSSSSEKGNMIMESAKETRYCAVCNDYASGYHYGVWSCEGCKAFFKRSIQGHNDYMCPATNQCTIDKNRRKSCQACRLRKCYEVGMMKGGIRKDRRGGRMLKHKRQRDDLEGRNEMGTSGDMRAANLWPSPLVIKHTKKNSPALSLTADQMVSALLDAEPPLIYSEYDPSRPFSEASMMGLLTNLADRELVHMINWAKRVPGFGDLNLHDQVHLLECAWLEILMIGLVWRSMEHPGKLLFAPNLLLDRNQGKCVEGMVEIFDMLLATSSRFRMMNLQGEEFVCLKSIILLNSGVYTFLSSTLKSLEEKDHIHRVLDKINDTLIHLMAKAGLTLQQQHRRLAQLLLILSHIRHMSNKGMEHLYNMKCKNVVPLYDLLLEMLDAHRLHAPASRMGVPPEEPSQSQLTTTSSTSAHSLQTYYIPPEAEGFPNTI

Structure (SMILES): C[C@]12CC[C@@H]3c4ccc(O)cc4CC[C@H]3[C@@H]1[C@@H](O)[C@@H](O)[C@@H]2O [E4, 1,3,5(10)-estratrien-3,15α,16α,17β-tetrol]
- relative binding affinity for human SHBG [1]: does not bind at all
- agonistic potency relative to 17β-estradiol in in vitro cell proliferation [2]: 2%
- uterotrophic activity (immature rat uterus; 1979): very weak uterotrophic activity
- uterotrophic activity (immature rat uterus; 1980): very weak uterotrophic activity
- uterotrophic activity (uterus): very weak uterotrophic activity
- relative binding to estrogen receptors, of 17β-estradiol [3]: 1.5%
- relative binding affinity, of 17β-estradiol (100%) [4]: 0.3%
